Values joined by “and” are separate entries in the source; they are usually repeats but may differ in a detail not shown here. Equal values may be shown once.
Assay: Phase 1 single-ascending dose (Part 1): safety and tolerability in healthy adults
Type: in vivo, human
Protocol: This ongoing trial is a Phase 1 randomized, double-blind, placebo-controlled study in male and female healthy adult volunteers aged 18-55 years. All volunteers provided written, informed consent.
All volunteers were followed up for 4 weeks and safety and tolerability were continuously assessed throughout the study. All adverse events (AEs) were recorded from the time of consent to the completion visit and were graded using the DAIDS toxicity grading scale. Volunteers also underwent physical examinations, electrocardiograms, vital sign checks and clinical laboratory parameters (chemistry, haematology, urinalysis).

CCCCOc1nc(N)c2[nH]cc(Cc3ccc(CN4CCCC4)cc3)c2n1 [Compound 4]
6 (75.0%) n (%): treatment-related AE: Any AE (single dose 1.25 mg fasted)
4 (50.0%) n (%): treatment-related AE: Headache (single dose 1.25 mg fasted) | treatment-related AE: Nervous system disorders (single dose 1.25 mg fasted)
1 (13) n (%): ↑ Glucose Grade 2 (laboratory abnormality) (single dose 1.25 mg fasted) | ↑ LDL cholesterol Grade 3 (laboratory abnormality) (single dose 1.25 mg fasted) | ↑ Sodium Grade 2 (laboratory abnormality) (single dose 1.25 mg fasted) | ↓ Lymphocytes Grade 2 (laboratory abnormality) (single dose 1.25 mg fasted)
6 (86) n (%): Any AE (treatment-emergent) (single dose 1.25 mg fed)
1 (17) n (%): ↑ Cholesterol Grade 2 (laboratory abnormality) (single dose 1.25 mg fasted)
1 (14.3%) n (%): ECG change from reference: QTcF (ms) [30; 60] (single dose 1.25 mg fed) | lab toxicity: Amylase (U/L), upwards, Grade 1 (single dose 1.25 mg fed) | lab toxicity: LDL cholesterol (mmol/L, calculated), upwards, Grade 1 (single dose 1.25 mg fed) | lab toxicity: Triglycerides (mmol/L), upwards, Grade 2 (single dose 1.25 mg fed) | subjects with at least one AE possibly related to any study drug (single dose 1.25 mg fed) | subjects with at least one AE possibly, probably or very likely related to any study drug (single dose 1.25 mg fed) | treatment-related AE: Any AE (single dose 1.25 mg fed) | treatment-related AE: Oropharyngeal pain (single dose 1.25 mg fed) | treatment-related AE: Respiratory, thoracic and mediastinal disorders (single dose 1.25 mg fed) | vital signs: SaO2 (%) 90% to <95% (single dose 1.25 mg fed) | vital signs: Standing DBP (mmHg) Grade 1 (single dose 1.25 mg fed) | vital signs: Standing DBP (mmHg) Grade 3 (single dose 1.25 mg fed) | vital signs: Standing pulse (bpm) High (single dose 1.25 mg fed) | vital signs: Supine DBP (mmHg) Grade 1 (single dose 1.25 mg fed)
2 (28.6%) n (%): ECG change from reference: QTcB (ms) [30; 60] (single dose 1.25 mg fed) | lab toxicity: Glucose (mmol/L), upwards, Grade 1 (single dose 1.25 mg fed) | vital signs: Standing DBP (mmHg) Grade 2 (single dose 1.25 mg fed)
3 (42.9%) n (%): lab toxicity: Sodium (mmol/L), upwards, Grade 1 (single dose 1.25 mg fed) | lab toxicity: Triglycerides (mmol/L), upwards, Grade 1 (single dose 1.25 mg fed) | vital signs: Respiratory rate (brpm) Grade 1 (single dose 1.25 mg fed) | vital signs: SaO2 (%) 95% to <98% (single dose 1.25 mg fed) | vital signs: Standing SBP (mmHg) Grade 1 (single dose 1.25 mg fed)
3 (37.5%) n (%): treatment-related AE: General disorders and administration site conditions (single dose 1.25 mg fasted) | treatment-related AE: Myalgia (single dose 1.25 mg fasted) | treatment-related AE: Pyrexia (single dose 1.25 mg fasted) | vital signs: SaO2 (%) 90% to <95% (single dose 1.25 mg fasted) | vital signs: SaO2 (%) 95% to <98% (single dose 1.25 mg fasted)
2 (25.0%) n (%): treatment-related AE: Oropharyngeal pain (single dose 1.25 mg fasted) | treatment-related AE: Respiratory, thoracic and mediastinal disorders (single dose 1.25 mg fasted) | vital signs: Standing DBP (mmHg) Grade 2 (single dose 1.25 mg fasted)
7 (87.5%) n (%): subjects with at least one grade 1 AE (single dose 1.25 mg fasted) | vital signs: Respiratory rate (brpm) Grade 1 (single dose 1.25 mg fasted)
1 (12.5%) n (%): subjects with at least one grade 2 AE (single dose 1.25 mg fasted) | vital signs: Standing DBP (mmHg) Grade 1 (single dose 1.25 mg fasted) | vital signs: Standing SBP (mmHg) Grade 1 (single dose 1.25 mg fasted) | vital signs: Standing SBP (mmHg) Low (single dose 1.25 mg fasted) | vital signs: Standing pulse (bpm) High (single dose 1.25 mg fasted) | vital signs: Supine DBP (mmHg) Grade 1 (single dose 1.25 mg fasted) | vital signs: Supine SBP (mmHg) Grade 1 (single dose 1.25 mg fasted) | vital signs: Supine SBP (mmHg) Low (single dose 1.25 mg fasted)
6 (85.7%) n (%): subjects with at least one AE (single dose 1.25 mg fed) | subjects with at least one grade 1 AE (single dose 1.25 mg fed)
1 (14) n (%): Headache Grade 1 (treatment-emergent AE) (single dose 1.25 mg fed) | URTI Grade 1 (treatment-emergent AE) (single dose 1.25 mg fed)
0 n (%): subjects with at least one SAE (single dose 1.25 mg fasted) | subjects with at least one fatal AE (single dose 1.25 mg fasted) | subjects with at least one grade 3 or 4 AE (single dose 1.25 mg fasted) | treatment-related AE: Chills (single dose 1.25 mg fasted) | treatment-related AE: Dizziness (single dose 1.25 mg fasted) | treatment-related AE: Hypertension (single dose 1.25 mg fasted) | treatment-related AE: Vascular disorder (single dose 1.25 mg fasted) | vital signs: Respiratory rate (brpm) Grade 2 (single dose 1.25 mg fasted) | vital signs: Standing DBP (mmHg) Grade 3 (single dose 1.25 mg fasted) | vital signs: Standing DBP (mmHg) Low (single dose 1.25 mg fasted) | vital signs: Standing pulse (bpm) Low (single dose 1.25 mg fasted) | vital signs: Supine DBP (mmHg) Low (single dose 1.25 mg fasted) | vital signs: Supine SBP (mmHg) Grade 2 (single dose 1.25 mg fasted) | vital signs: Supine pulse (bpm) Low (single dose 1.25 mg fasted) | ↑ AST Grade 3 (laboratory abnormality) (single dose 1.25 mg fasted) | ↑ Amylase Grade 2 (laboratory abnormality) (single dose 1.25 mg fasted) | ↑ Creatine kinase Grade 2 (laboratory abnormality) (single dose 1.25 mg fasted) | ↑ Creatine kinase Grade 4 (laboratory abnormality) (single dose 1.25 mg fasted) | ↑ LDL cholesterol Grade 2 (laboratory abnormality) (single dose 1.25 mg fasted) | ↑ Lipase Grade 2 (laboratory abnormality) (single dose 1.25 mg fasted) | ↑ Pancreatic amylase Grade 2 (laboratory abnormality) (single dose 1.25 mg fasted) | ↑ Potassium Grade 2 (laboratory abnormality) (single dose 1.25 mg fasted) | ↑ Triglycerides Grade 3 (laboratory abnormality) (single dose 1.25 mg fasted) | ↓ Bicarbonate Grade 2 (laboratory abnormality) (single dose 1.25 mg fasted) | ↓ Lymphocytes Grade 4 (laboratory abnormality) (single dose 1.25 mg fasted) | ↓ Neutrophils Grade 2 (laboratory abnormality) (single dose 1.25 mg fasted) | ↓ Phosphate Grade 2 (laboratory abnormality) (single dose 1.25 mg fasted) | Back pain Grade 1 (treatment-emergent AE) (single dose 1.25 mg fed) | Chills Grade 1 (treatment-emergent AE) (single dose 1.25 mg fed) | Contact dermatitis Grade 1 (treatment-emergent AE) (single dose 1.25 mg fed) | Dizziness Grade 1 (treatment-emergent AE) (single dose 1.25 mg fed) | ECG actual value: Heart rate (bpm) Low (single dose 1.25 mg fed) | ECG actual value: QRS (ms) High (single dose 1.25 mg fed) | ECG actual value: QTcB (ms) ]450; 480] (single dose 1.25 mg fed) | ECG actual value: QTcF (ms) ]450; 480] (single dose 1.25 mg fed) | Headache Grade 2 (treatment-emergent AE) (single dose 1.25 mg fed) | Hypertension Grade 1 (treatment-emergent AE) (single dose 1.25 mg fed) | Hypertension Grade 2 (treatment-emergent AE) (single dose 1.25 mg fed) | Myalgia Grade 1 (treatment-emergent AE) (single dose 1.25 mg fed) | Pyrexia Grade 1 (treatment-emergent AE) (single dose 1.25 mg fed) | Pyrexia Grade 2 (treatment-emergent AE) (single dose 1.25 mg fed) | lab toxicity: Amylase (U/L), upwards, Grade 2 (single dose 1.25 mg fed) | lab toxicity: Cholesterol (mmol/L), upwards, Grade 1 (single dose 1.25 mg fed) | lab toxicity: Cholesterol (mmol/L), upwards, Grade 2 (single dose 1.25 mg fed) | lab toxicity: Creatine kinase (U/L), upwards, Grade 1 (single dose 1.25 mg fed) | lab toxicity: Creatine kinase (U/L), upwards, Grade 2 (single dose 1.25 mg fed) | lab toxicity: Creatine kinase (U/L), upwards, Grade 4 (single dose 1.25 mg fed) | lab toxicity: Glucose (mmol/L), upwards, Grade 2 (single dose 1.25 mg fed) | lab toxicity: LDL cholesterol (mmol/L, calculated), upwards, Grade 2 (single dose 1.25 mg fed) | lab toxicity: LDL cholesterol (mmol/L, calculated), upwards, Grade 3 (single dose 1.25 mg fed) | lab toxicity: Lymphocytes (giga/L), downwards, Grade 2 (single dose 1.25 mg fed) | lab toxicity: Lymphocytes (giga/L), downwards, Grade 4 (single dose 1.25 mg fed) | lab toxicity: Neutrophils, segmented (giga/L), downwards, Grade 1 (single dose 1.25 mg fed) | lab toxicity: Neutrophils, segmented (giga/L), downwards, Grade 2 (single dose 1.25 mg fed) | lab toxicity: Platelets (giga/L), downwards, Grade 1 (single dose 1.25 mg fed) | lab toxicity: Sodium (mmol/L), upwards, Grade 2 (single dose 1.25 mg fed) | lab toxicity: Triglycerides (mmol/L), upwards, Grade 3 (single dose 1.25 mg fed) | lab toxicity: Urate (μmol/L), upwards, Grade 1 (single dose 1.25 mg fed) | subjects with at least one AE for which any study drug or study was permanently stopped (single dose 1.25 mg fed) | subjects with at least one AE for which any study drug or study was temporarily stopped (single dose 1.25 mg fed) | subjects with at least one AE probably related to any study drug (single dose 1.25 mg fed) | subjects with at least one AE very likely related to any study drug (single dose 1.25 mg fed) | subjects with at least one SAE (single dose 1.25 mg fed) | subjects with at least one fatal AE (single dose 1.25 mg fed) | subjects with at least one grade 2 AE (single dose 1.25 mg fed) | subjects with at least one grade 3 or 4 AE (single dose 1.25 mg fed) | treatment-related AE: Chills (single dose 1.25 mg fed) | treatment-related AE: Dizziness (single dose 1.25 mg fed) | treatment-related AE: General disorders and administration site conditions (single dose 1.25 mg fed) | treatment-related AE: Headache (single dose 1.25 mg fed) | treatment-related AE: Hypertension (single dose 1.25 mg fed) | treatment-related AE: Myalgia (single dose 1.25 mg fed) | treatment-related AE: Nervous system disorders (single dose 1.25 mg fed) | treatment-related AE: Pyrexia (single dose 1.25 mg fed) | treatment-related AE: Vascular disorder (single dose 1.25 mg fed) | vital signs: Respiratory rate (brpm) Grade 2 (single dose 1.25 mg fed) | vital signs: Standing DBP (mmHg) Low (single dose 1.25 mg fed) | vital signs: Standing SBP (mmHg) Low (single dose 1.25 mg fed) | vital signs: Standing pulse (bpm) Low (single dose 1.25 mg fed) | vital signs: Supine DBP (mmHg) Low (single dose 1.25 mg fed)
4 (50) n (%): ↑ Triglycerides Grade 2 (laboratory abnormality) (single dose 1.25 mg fasted)
3 and 3/8: subjects with fever and flu-like symptoms (flu-like AEs and lymphopenia) (single dose 1.25 mg fasted)
2 (29) n (%): Oropharyngeal pain Grade 1 (treatment-emergent AE) (single dose 1.25 mg fed)
